One series deals with MCF7 Cells. Description: in vitro direct cytotoxicity, Cell titer blue viability assay. It is filed as cell-based. The note with it: MCF7 cells (hormone-sensitive), 72 hrs incubation, 1% FBS assay media. How it is done:
(§1) Cells were maintained in vitro in RPMI 1640 containing 10% (v/v) heat inactivated fetal bovine serum (FBS) and 2 mM L-glutamine (growth media) at 37° C. in 5% CO2 and humidified conditions. Cells were harvested, washed, re-suspended into growth medium and counted. The cells were re-suspended into assay media (RPMI 1640+1% (v/v) heat inactivated FBS+ and 2 mM L-glutamine) at 0.5-1×10^5 cells/ml (dependent on cell type), and plated into 96-well assay plates (Corning, black-wall plates) and 50 μl/well aliquots.
(§2) Plates were incubated O/N at 37° C. in 5% humidified CO2 prior to addition of the compounds. […] Fosfestrol was dissolved in sterile water at stock concentration of 60 mM.
(§3) Stocks of all compounds were then serially diluted and final concentration to which cells were exposed were: 300, 150, 75, 37.5, 18.75, 9.4, 4.7, 2.3, 1.2 and 0.6 μM. Positive control was Cisplatin. Cisplatin was diluted in 1% FBS medium to give a stock concentration of 1 mM. Cisplatin stock was serial diluted and final concentration to which cells were exposed was: 100, 50, 25, 12.5, 6.3, […], 1.6, 0.8, 0.4, 0.2 μM.
(§4) Plates were incubated for 72 hrs at 37° C. in 5% humidified CO-2 after addition of the compounds. Viability of the cells was assessed with the Cell titer blue® (Promega) assay. […] Fluorescence was measured with a Flex II station plate reader. […]
Background: Resazurin is reduced to fluorescent resorufin, in cell work by metabolically active cells.

The test system of the next series is MDA-MB-231 Cells. Described as above. It is filed as cell-based. The note with it: MDA-MB-231 cells (hormone-insensitive), 72 hrs incubation, 1% FBS assay media. As for the experimental part: as §1, §2, §3, §4
For a further series, the system named is MCF-7 cells. Particulars: 4 days, 5 μM (2 μg/ml); cited from earlier work.
For series [1], the system named is postmenopausal women with metastatic breast cancer. The note with it: women initially treated; cited from earlier work.
The conditions of series [2]: prostate cancer patients, 5 mg p.o. per day; cited from earlier work.
Series [3] deals with postmenopausal breast cancer patients heavily exposed to endocrine therapy. Particulars: 15 mg daily p.o., cited from earlier work.
Series [4] relates to hormone independent mammary carcinomas. The note with it: very high doses in vivo; cited from earlier work.

As usually defined, the IC50 is the point on the concentration scale where inhibition reaches its midpoint. Low readings indicate inhibition by little substance, high ones a need for much substance. As for `N.N.[Cl][Pt][Cl]` [Cisplatin], the IC50 with MCF7 Cells was 2800 nM; in the series with MDA-MB-231 Cells it was 13 µM.
On to `CC/C(=C(/CC)c1ccc(OP(=O)(O)O)cc1)c1ccc(O)cc1` [DES monophosphate], for which the “reduction in cell growth” value in the series on MCF-7 cells is “no effect at all”.
Regarding `CC/C(=C(/CC)c1ccc(O)cc1)c1ccc(O)cc1` [DES, diethylstilbestrol], the “reduction in cell growth” value in the series on MCF-7 cells is listed as “no effect at all”. Also, in series [1], the 5-year survival is given as 35% and the median survival is listed as 3.0 years. In addition, the “increase in non-cancer related deaths, mostly cardiovascular” value in series [2] is reported as 36%. The “efficacy in highly pretreated patients” value in series [3] is listed as “effective”. Moreover, in series [3] (six patients), the “patients who stopped therapy because of side effects” value is listed as 19%. In series [4], the “effect on hormone independent mammary carcinomas” value is listed as “no effect”.
Consider `CC/C(=C(\c1ccccc1)c1ccc(OCCN(C)C)cc1)c1ccccc1` [tamoxifen], for which, in series [1], the 5-year survival is 16% and the median survival is given as 2.4 years.

The values above are taken from patent US20160199298A1, “FOSFESTROL FOR USE IN CURATIVE OR PALLIATIVE TREATMENT OF CANCER IN FEMALE MAMMALS” (CHAMAELEO PHARMA BVBA, priority 2012, published 2016).
